Results published in paper PMC5059851, “Inhibition of Hedgehog-dependent tumors and cancer stem cells by a newly identified naturally occurring chemotype” (Cell Death & Disease, 2016).

Columns and labels:
human Smo WT = target: T1, human Smo WT (Homo sapiens, UniProt Q99835); assay: Bodipy-Cyclopamine (BC) binding assay, HEK293T cells transfected with human Smo WT; conditions: BC (5 nM) displacement, transiently transfected 293T cells
T1 construct: Myc-DDK; expressed in transfected cells; host or cells: HEK293T
T1 sequence (Q99835 28-787): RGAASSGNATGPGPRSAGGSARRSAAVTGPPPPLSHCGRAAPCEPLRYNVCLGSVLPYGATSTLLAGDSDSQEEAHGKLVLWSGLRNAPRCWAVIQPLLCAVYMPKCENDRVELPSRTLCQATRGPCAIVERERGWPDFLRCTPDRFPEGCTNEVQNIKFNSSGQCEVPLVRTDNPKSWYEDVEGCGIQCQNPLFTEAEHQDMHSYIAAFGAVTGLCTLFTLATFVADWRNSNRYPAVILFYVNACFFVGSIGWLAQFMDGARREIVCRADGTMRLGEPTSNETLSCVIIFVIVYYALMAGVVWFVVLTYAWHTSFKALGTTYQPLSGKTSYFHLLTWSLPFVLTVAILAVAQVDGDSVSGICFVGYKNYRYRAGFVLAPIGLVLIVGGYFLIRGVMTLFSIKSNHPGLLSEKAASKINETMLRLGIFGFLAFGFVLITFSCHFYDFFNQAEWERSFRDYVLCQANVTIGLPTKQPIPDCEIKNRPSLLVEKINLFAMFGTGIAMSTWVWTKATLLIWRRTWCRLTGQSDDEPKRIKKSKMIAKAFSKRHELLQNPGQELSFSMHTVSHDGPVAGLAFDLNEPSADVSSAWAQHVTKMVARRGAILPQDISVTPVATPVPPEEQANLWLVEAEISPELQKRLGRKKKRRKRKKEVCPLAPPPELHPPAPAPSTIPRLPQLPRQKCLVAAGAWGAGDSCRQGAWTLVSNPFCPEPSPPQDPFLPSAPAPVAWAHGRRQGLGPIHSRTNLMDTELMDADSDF
Procedure: (§1) Cells were washed in PBS supplemented with 0.5% fetal bovine serum, fixed in 4% paraformaldehyde in phosphate-buffered saline (PBS) for 10 min, and incubated for 2 h at 37 °C both in the same medium supplemented with Bodipy-Cyclopamine (5 nM) and the studied compounds. The cells were permeabilized with Triton X100 (Sigma) 0.2%. Dako Fluorescent mounting (Dako, Carpinteria, CA, USA) was used as mounting medium and Hoechst reagent for staining of the cell nuclei. Bodipy (green) and Hoechst (blue) signals were analyzed in three to four representative fields per coverslip (× 20 magnification, 1000 cells/field). Data were expressed as percentage of BC incorporation observed with BC alone.[95]

human Smo D473H = target: T2, human Smo D473H (Homo sapiens, UniProt Q99835, D473H); assay: Bodipy-Cyclopamine (BC) binding assay, HEK293T cells transfected with human Smo D473H
T2 construct: Myc-DDK; expressed in transfected cells; host or cells: HEK293T
T2 sequence (Q99835 28-787 D473H): as the sequence (Q99835 28-787) above, with D446H counted along it
Procedure: as §1

murine Smo WT = target: T3, murine Smo WT (Mus musculus, UniProt P56726); assay: Bodipy-Cyclopamine (BC) binding assay, HEK293T cells transfected with mouse Smo WT
T3 construct: Flag; expressed in transfected cells; host or cells: HEK293T
T3 sequence (P56726 33-793): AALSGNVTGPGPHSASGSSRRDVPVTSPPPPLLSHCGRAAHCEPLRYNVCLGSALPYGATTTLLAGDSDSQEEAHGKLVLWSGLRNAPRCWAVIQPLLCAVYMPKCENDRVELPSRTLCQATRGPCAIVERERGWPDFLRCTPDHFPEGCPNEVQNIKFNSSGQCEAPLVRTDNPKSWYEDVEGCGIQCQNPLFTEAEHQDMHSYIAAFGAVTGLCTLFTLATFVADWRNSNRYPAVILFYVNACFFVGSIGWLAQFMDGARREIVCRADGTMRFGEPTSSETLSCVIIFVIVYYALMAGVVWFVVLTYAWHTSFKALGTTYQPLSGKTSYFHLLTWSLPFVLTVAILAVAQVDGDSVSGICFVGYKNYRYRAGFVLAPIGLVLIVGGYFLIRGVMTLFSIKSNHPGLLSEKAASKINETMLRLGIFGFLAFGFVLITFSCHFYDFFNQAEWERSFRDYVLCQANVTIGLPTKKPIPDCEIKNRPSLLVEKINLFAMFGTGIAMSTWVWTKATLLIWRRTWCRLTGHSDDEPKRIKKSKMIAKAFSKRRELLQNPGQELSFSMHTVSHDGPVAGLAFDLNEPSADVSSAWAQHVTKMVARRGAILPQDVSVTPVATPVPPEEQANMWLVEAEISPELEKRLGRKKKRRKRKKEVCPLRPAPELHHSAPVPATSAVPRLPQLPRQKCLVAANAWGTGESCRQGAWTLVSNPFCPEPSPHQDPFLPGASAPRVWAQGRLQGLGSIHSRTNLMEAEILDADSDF
Procedure: as §1
BC binding (green) is visualized using fluorescence microscopy in a representative field (a). […] Quantitative data are the average BC intensity from five independent fluorescence microscopy images.

[1] = system: Hh target genes and growth markers in GCPs; assay: qRT-PCR of Hh and proliferation targets in SAG-treated GCPs; assay type: cell-based, mouse; conditions: SAG + compound at 5 and 10 μM, 48 h
Source text: Hh signaling is a critical regulator of cerebellum development controlling the proliferation of granule cell progenitors (GCPs) under Purkinje cell-derived Shh stimuli. Withdrawal of Hh signal, occurring physiologically after the first post-natal week in mice,[54] causes cell growth arrest and induces their differentiation into mature granules.[55] Importantly, genetic and epigenetic alterations in the Hh pathway are responsible for the lack of GCPs proliferation arrest, leading to the tumorigenic conversion of these progenitors, considered as the cell of origin of MB.[56], [57] To investigate the biological effects of 12, we first tested its ability to suppress Hh-dependent growth in 4-day-old mouse cerebellar progenitors.
Figure 4 Compound 12 inhibition of Hh-dependent growth of cerebellum granule cell progenitors. (a and b) BrdU assay in cerebellar granule cell progenitors (GCPs). GCPs isolated from 4-day-old mice were treated with SAG alone or in combination with compound 12 at 5 and 10 μM concentrations for 48 h. (a) Inhibition of cell proliferation was measured as percentage of BrdU incorporation in comparison with SAG-treated sample. […] (c) qRT-PCR analysis show Hh and proliferation targets mRNA expression levels determined in GCPs culture derived from 4-day-old mouse cerebella treated with SAG alone or in combination with compound 12 at 5 and 10 μM concentrations for 48 h. […]

[2] = system: primary MB cells from Ptch1^+/− mice; assay: Trypan blue growth count of primary MB cells from Ptch1+/− mice; assay type: cell-based, mouse; conditions: ex vivo cultures from Ptch1^+/− mice MBs
Procedure: (§2) Cell proliferation was evaluated by BrdU detection (Roche, Welwyn Garden City, UK). Briefly, after the BrdU pulse (24 h for GCPs) cells were fixed with 4% paraformaldehyde and permeabilized with 0.2% Triton X-100, and BrdU detection was performed according to the manufacturer's instructions. Nuclei were counterstained with Hoechst reagent. At least 500 nuclei were counted in triplicate, and the number of BrdU-positive nuclei was recorded. To determine the growth rate of viable cells, a trypan blue count was performed after a treatment period of 24–48–72 h with studied compound.

Gli1 mRNA [3] = assay: Gli1 mRNA (qRT-PCR) in primary MB cells from Ptch1+/− mice; assay type: cell-based, mouse; conditions: ex vivo cultures from Ptch1^+/− mice MBs
Procedure: (§3) Total RNA was isolated with Trizol (Invitrogen/Life Technologies, Carlsbad, CA, USA) and reverse transcribed with SensiFAST cDNA Synthesis Kit (Bioline Reagents Limited, London, UK). Quantitative real-time PCR (Q-PCR) analysis of Gli1, Gli2, Ptch1, Bmp2, Pfkfb3, CycD1, CycD2, Pcna, Oct4, Nanog, β-2 microglobulin, β-actin and HPRT mRNA expression was performed on each cDNA sample using the VIIA7 Real Time PCR System employing Assay-on-Demand Reagents (Life Technologies).

ASZ001 BCC cells = assay: Trypan blue growth count of ASZ001 BCC cells; assay type: cell-based, mouse; conditions: compared with Cyclopamine, Vismodegib and LDE-225
Procedure: After the indicated times, a trypan blue count was performed to determine the growth rate.
as §2

ASZ001 BCC allografts = assay: ASZ001 BCC allograft in NOD/SCID mice; assay type: in vivo, mouse; conditions: 50 mg/kg s.c. every second day, versus vehicle
[4] = system: human medulloblastoma DAOY cells; assay: Trypan blue growth count of DAOY cells; assay type: cell-based; conditions: versus Cyclopamine, Vismodegib, LDE-225
Procedure: (§4) After the indicated times, a trypan blue count was performed to determine the growth rate. […] Results were normalized to endogenous control (β-actin and HPRT).
as §2

[5] = system: human prostate carcinoma epithelial 22Rv1 cells; assay: Trypan blue growth count of 22Rv1 cells; assay type: cell-based; conditions: versus Cyclopamine, Vismodegib, LDE-225
Procedure: as §4, §2

Gli1 mRNA [6] = assay: Gli1 mRNA (qRT-PCR) in DAOY cells; assay type: cell-based, human; conditions: after treatment
Procedure: as §4, §3

[7] = BC (5 nM) displacement, transiently transfected 293T cells

IC50 (human Smo WT): 24.5 µM
IC50 (human Smo D473H; [7]): 22.7 µM
activity on the D473H drug-resistant Smo mutant (human Smo D473H; BC displacement assay): active
Fold shift human Smo (human Smo D473H; IC50 Smo D473H / IC50 Smo WT): 0.9257
loss of affinity for the resistant Smo mutants in binding assay (human Smo D473H; resistant Smo mutants versus WT): conserved the same affinity
IC50 (murine Smo WT; [7]): 45.6 µM
inhibition of BC binding to murine Smo WT (murine Smo WT; HEK293T cells, various concentrations): significantly inhibited BC binding
SMILES: COc1ccc(C=CC(=O)c2cc(OC)c(OC)cc2OC)cc1OC [Compound 12, 3-(3,4-dimethoxy-phenyl)-1-(2,4,5-trimethoxy-phenyl)-2-propen-1-one]
mRNA levels of Hh target genes and cell growth markers (Gli1, Gli2, Ptch1, Pcna, cyclin D2) [1]: reduced mRNA levels
proliferation of primary MB cells [2]: significant inhibition of the proliferation
Gli1 mRNA levels in primary MB cells (Gli1 mRNA [3]): decrease of Gli1 mRNA levels
ASZ001 BCC cell growth in vitro (ASZ001 BCC cells): significant efficacy to impair ASZ001 BCC cell growth
tumor cell growth (tumor volume) in BCC allograft (ASZ001 BCC allografts; 18 days): reduction of tumor cell growth
percentage of Ki67 labeling in allograft tumors (ASZ001 BCC allografts): decreased percentage of Ki67 labeling
inhibition of DAOY cell proliferation [4]: higher activity than other Smo antagonists
inhibition of 22Rv1 cell proliferation [5]: higher activity than other Smo antagonists
Gli1 mRNA levels in DAOY cells (Gli1 mRNA [6]): significant decrease of Gli1 mRNA levels
